This is an account of results in patent US20230330040A1, “IMMUNOLOGICAL EFFECTS OF METABOLITES” (The Regents of the University of California, priority 2020, published 2023).

Entries after “also recorded” stand apart in the source; their conditions may differ.

For assay [1], the system named is C. elegans var. Bristol (N2). As to the kind of experiment: C. elegans lifespan analysis. The settings on record: for lifespan extension versus untreated control worms / lifespan versus spermidine treated worms: lifelong treatment; for lifespan extension versus untreated control worms: 0.2 mM spermidine, 0.5 mM 1-MNA, 0.01 and 0.1 mM PEA, 0.01 mM OEA, b30 prints 100 μM spermidine, 100 μM 1-MNA; for lifespan extension versus Control: lifelong exposure. It counts as in vivo. On the procedure:
C. elegans var. Bristol (N2), was used as the wild-type strain. Strains were maintained and lifespan assays were performed at 20° C. Twenty-four hours after seeding Escherichia coli (OP50) bacteria on standard NGM plates, the bacteria were killed by 4 min exposure to UV irradiation using a Stratalinker UV crosslinker (Stratagene, Model 2400). The following concentrations of compounds were used: 0.2 mM spermidine, 0.5 mM 1-MNA, 0.01 and 0.1 mM PEA, and 0.01 mM OEA. Spermidine and MNA were diluted into 100 μl sterilized water and applied to the top of the agar medium (3 ml NGM plates). Plates were then gently swirled to allow compounds to spread to the entire NGM surface. Identical solutions of compound-free water were used for the control plates. Plates were then allowed to dry overnight. The procedure was repeated each time worms were transferred to fresh plates (every 2-4 days). PEA and OEA were added to cooled agar, prior to solidification; for the combination, all compounds were added to cooled agar and plates stored at 4° C. Synchronous worm populations were generated by hypochlorite treatment of gravid adults and life span assays were performed beginning at the L4 stage (Day 0). Seven to eight plates of 15 worms each were exposed to the indicated compounds. Animals were transferred to fresh plates every 2 days for the first week and then 3-4 days thereafter. Worms were examined for touch-provoked movement and pharyngeal pumping, until death. Worms that died due to desiccation from crawling on the edge of the plates, were censored. Kaplan-Meier survival curves were created to evaluate C. elegans lifespan. The R package survival (3.1.8) was used to fit the Cox proportional hazards regression model to evaluate differences of survivals between each treatment group versus control.

The subject of assay [2] is total cyclooxygenase (COX) activity. As to the kind of experiment: COX activity assay in LPS stimulated THP-1 macrophage. It counts as cell-based, human. Conditions: spermidine 100 μM, 1-MNA 100 μM, PEA 10 nM, OEA 10 μM, Combo = all four. On the procedure: For certain assays requiring high cellular concentrations beyond what was feasible to isolate from human volunteers, THP-1 monocytes (ATCC, TIB-202) were cultured in RPMI 1640, 10% FBS, lx PSG and differentiated into M0 macrophage using 100 nM phorbol 12-myristate-13-acetate (PMA) for 2 days followed by incubation with clean RPMI, 10% FBS, 1×PSG for 1 day.
The effect of treatment with participant plasma and individual metabolites on the total cellular COX activity of THP-1 macrophage was measured using a commercially available kit (Cayman Chemical, 760151). In order to induce COX-2 expression, THP-1 macrophage were incubated with 10 ng/mL of lipopolysaccharide (LPS) (Sigma, LPS25) in RPMI, 1×PSG along with 20% participant plasma, or in RMPI, 10% FBS, 1×PSG either alone as a positive control or with isolated metabolites overnight (approximately 18 hrs) before measuring total COX activity from cell lysates. A negative control of macrophage in RPMI, 10% FBS, 1×PSG without LPS was also performed. (Inter CV: 5.4, Intra CV: 12.3)

As to `NCCCCNCCCN` [spermidine], the “lifespan extension versus untreated control worms” value in assay [1] is given as “significantly increased lifespan extension; also recorded: Significant lifespan extension”.
On the same count and under the same terms, under `C[n+]1cccc(C(N)=O)c1` [1-MNA, 1-methylnicotinamide] stands “Significant lifespan extension was observed for all metabolites except 1-MNA”.
Turning to `CCCCCCCCCCCCCCCC(=O)NCCO` [PEA, palmitoylethanolamide], the “total COX activity versus vehicle treated positive control” value in assay [2] is on record as “potent inhibitor of COX activity”. Also, the entries for the “lifespan extension versus Control” value in assay [1] (PEA 10 μM (lower concentration)) and in assay [1] (PEA 100 μM) were “most effective at increasing lifespan; also recorded: Significant lifespan extension” and “Significant lifespan extension”, respectively. Besides, the “lifespan versus spermidine treated worms” value in assay [1] was “significantly increased lifespan”. In addition, the “lifespan extension versus untreated control worms” value in assay [1] is on record as “significantly increased lifespan extension”.
For `CCCCCCCC/C=C\CCCCCCCC(=O)NCCO` [OEA, oleoylethanolamide], in assay [1], the “lifespan versus spermidine treated worms” value was “significantly increased lifespan” and the “lifespan extension versus untreated control worms” value is “significantly increased lifespan extension; also recorded: Significant lifespan extension”.
